Patent US10189816B2, “Substituted pyridines as inhibitors of human immunodeficiency virus replication” (priority 2015, dated 2019)
Read-outs that look alike come from different tables or passages of the source.

Tested on: NL-RLuc virus
Assay: Inhibition of HIV replication (NL-RLuc reporter virus in MT-2 cells, luciferase readout)
Format: cell-based
Conditions: Human immunodeficiency virus 1, MT2, 120 h
Outline: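 MT-2 cells infected with NL4-3-derived NL-RLuc reporter virus (Renilla luciferase replacing part of nef) with serial compound dilutions, RPMI 1640 + 10% FBS; 5 days. Growth by luciferase; EC50 from median effect equation, ≥2 experiments.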

Structure (SMILES)	EC50 (read-out: Activity) [µM]	EC50 (read-out: EC50 μM) [µM]
Cc1nc(C)c([C@H](OC(C)(C)C)C(=O)O)c(N2CCC(C)(C)CC2)c1-c1ccc2c(c1)CCN(Cc1ccc(C(F)(F)F)cc1)C2 [Compound 8, (S)-2-(tert-butoxy)-2-(4-(4,4-dimethylpiperidin-1-yl)-2,6-dimethyl-5-(2-(4-(trifluoromethyl)benzyl)-1,2,3,4-tetrahydroisoquinolin-6-yl)pyridin-3-yl)acetic acid]	< 0.1	
Cc1nc(C)c([C@H](OC(C)(C)C)C(=O)O)c(N2CCC(C)(C)CC2)c1-c1ccc2c(c1)CCN(Cc1ccc(F)cc1C(F)(F)F)C2 [Compound 69, (S)-2-(tert-butoxy)-2-(4-(4,4-dimethylpiperidin-1-yl)-5-(2-(4-fluoro-2-(trifluoromethyl)benzyl)-1,2,3,4-tetrahydroisoquinolin-6-yl)-2,6-dimethylpyridin-3-yl)acetic acid]	< 0.1	
Cc1nc(C)c([C@H](OC(C)(C)C)C(=O)O)c(N2CCC(C)(C)CC2)c1-c1ccc2c(c1)CCN(Cc1cccc(F)c1F)C2 [Compound 21, (S)-2-(tert-butoxy)-2-(5-(2-(2,3-difluorobenzyl)-1,2,3,4-tetrahydroisoquinolin-6-yl)-4-(4,4-dimethylpiperidin-1-yl)-2,6-dimethylpyridin-3-yl)acetic acid]	< 0.1	
Cc1nc(C)c([C@H](OC(C)(C)C)C(=O)O)c(N2CCC(C)(C)CC2)c1-c1ccc2c(c1)CCN(Cc1cc(F)cc(F)c1)C2 [Compound 31, (S)-2-(tert-butoxy)-2-(5-(2-(3,5-difluorobenzyl)-1,2,3,4-tetrahydroisoquinolin-6-yl)-4-(4,4-dimethylpiperidin-1-yl)-2,6-dimethylpyridin-3-yl)acetic acid]	< 0.1	0.011
